The source of these data is patent US11912679B2, “Aryl alkynamide derivatives” (Astellas Pharma, Inc., priority 2022, dated 2024).

Experiment [1] deals with IRF pathway of THP-1. Put plainly: Test on the activity of IRF pathway of THP-1 (THP1-Dual reporter cells stimulated with 2'3'-cGAMP). The class given is cell-based. The settings on record: Homo sapiens, PMA-treated, 2'3'-cGAMP 5 ug/mL, QUANTI-Luc readout, read-out: IC50 of inhibition of the activity of IRF pathway. Put shortly:
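PMA-differentiated THP1-Dual cells (0.3 uM PMA, 1 day) pre-incubated with compound 1 h at room temperature, then stimulated with 2′3′-cGAMP (final 5 ug/mL) overnight at 37 °C. IRF-driven secreted luciferase read with QUANTI-Luc; inhibition normalized to unstimulated (100%) and cGAMP-only (0%) wells, IC50 by sigmoid non-linear regression.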

Experiment [2] deals with IFNβ production. As to the kind of experiment: Test on IFNβ production in mice plasma (DMXAA-induced). The settings on record: male C57BL/6J mice, 1 mg/kg oral, DMXAA 20 mg/kg i.p. after 1 hour, plasma 4 hours later. The class given is in vivo. As for the experimental part:
Male C57BL/6J mice (8-12-weeks-old) were administered orally either vehicle or 1 mg/kg of test compounds. After 1 hour, 5,6-Dimethylxanthenone-4-acetic acid (DMXAA) (BLD Pharmatech Ltd, BD126695) was administered intraperitoneally at a dose of 20 mg/kg. Four hours later, the mice were euthanized, and the plasma was collected. Plasma concentration of IFNβ was measured by an enzyme-linked immunosorbent assay method using an AlphaLISA Mouse IFNβ Detection Kit (Parkin Elmer, AL586C), and the inhibition ratio to the vehicle administration group was calculated.

The test system of experiment [3] is saliva production. As to the kind of experiment: Test on drug-induced Sjogren's syndrome-like salivary dysfunction in mice. The class given is in vivo. The settings on record: female C57BL/6J mice, DMXAA 20 mg/kg s.c. four times weekly, test compound oral once a day for 8 days. Here is the method: Female C57BL/6J mice (8-10-weeks-old) were injected subcutaneously with 20 mg/kg of DMXAA or its vehicle, 5% NaHCO3, four times at weekly intervals. From the day after the last DMXAA challenge, mice were orally administered the test compound or its vehicle once a day for 8 days. On the following day, saliva was collected from mice using a cotton swab under awake conditions, and saliva weight during 15 min was measured and evaluated as an indicator of salivary gland function.

Structures are written as SMILES.

A word on the IC50: it is the concentration at which inhibition is half-maximal. On to `O=C(C#Cc1ccc(-c2ccccc2)c(C(F)(F)F)c1)N1C[C@@H](O)[C@@H](O)C1` [Example 33, 1-[(3R,4S)-3,4-dihydroxypyrrolidin-1-yl]-3-[2-(trifluoromethyl)[1,1′-biphenyl]-4-yl]prop-2-yn-1-one], for which, in experiment [1], the IC50 is 136 nM. In addition, the “Inh (%): inhibition ratio of the production of IFNβ to the vehicle administration group” value in experiment [2] amounted to 92%. The “saliva production (saliva weight during 15 min)” value in experiment [3] was “significantly improved saliva production”.
The matching figures for `NC(=O)C1CCN(C(=O)C#Cc2ccc(-c3ccccc3)c(C(F)(F)F)c2)CC1` [Example 34, 1-{3-[2-(trifluoromethyl)[1,1′-biphenyl]-4-yl]prop-2-ynoyl}piperidine-4-carboxamide]: 230 nM, 90% and “significantly improved saliva production”.
The matching figures for `N=S1(=O)CCN(C(=O)C#Cc2ccc(-c3ccccc3)c(C(F)(F)F)c2)CC1` [Example 99, 1-imino-4-{3-[2-(trifluoromethyl)[1,1′-biphenyl]-4-yl]prop-2-ynoyl}-1λ^6-thiomorpholin-1-one]: 102 nM, 68% and “significantly improved saliva production”.
